Experimental data: ChEMBL document CHEMBL3638794, “Indazole compounds useful as ketohexokinase inhibitors” (2014)

Target: T1, Ketohexokinase (Homo sapiens, UniProt P50053)
T1 sequence (P50053 whole entry): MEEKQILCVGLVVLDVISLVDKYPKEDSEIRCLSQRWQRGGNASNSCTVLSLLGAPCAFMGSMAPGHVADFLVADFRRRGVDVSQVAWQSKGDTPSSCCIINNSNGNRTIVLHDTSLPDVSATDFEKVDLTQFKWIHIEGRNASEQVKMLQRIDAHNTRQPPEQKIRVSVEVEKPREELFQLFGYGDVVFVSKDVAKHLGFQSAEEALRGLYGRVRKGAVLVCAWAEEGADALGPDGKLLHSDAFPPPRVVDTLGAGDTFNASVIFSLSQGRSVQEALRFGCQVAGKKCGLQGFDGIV
Experiment: Enzyme Assay: An enzymatic assay was developed to measure KHK-mediated conversion of D-fructose to Fructose-1-P (F-1-P) using High Throughput Mass Spectroscopy (HTMS) as a means of product detection. […] The assay was carried out in 384-well plate format.

IC50: 2050 nM
Compound: CSc1nn(-c2ccc(Br)cc2)c2cc(OC3CCNCC3)ccc12
